# Measurements reported in PubChem BioAssay (NCI).
#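 Tested at 5 concentrations; 48 h exposure; 96-well plates; endpoints linearly interpolated, else capped at highest concentration. GI50 is the concentration that inhibits growth by half. Definition used: TGI = concentration required for complete inhibition of growth.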
# Legend:
# Assay in all cases: NCI tumour cell line growth inhibition, 48 h
# [1] = test system: HT29 colon
# [2] = test system: HCT-15 colon
# [3] = test system: SF-268 CNS
# [4] = test system: NCI-H226 lung
# [5] = test system: NCI-H460 lung
# [6] = test system: SF-295 CNS
# [7] = test system: M14 melanoma
# [8] = test system: LOX IMVI melanoma
# [9] = test system: HCC-2998 colon
# [10] = test system: SR leukemia
Structure (SMILES),GI50 [1] [µM],TGI [1] [µM],GI50 [2] [µM],TGI [2] [µM],GI50 [3] [µM],TGI [3] [µM],GI50 [4] [µM],TGI [4] [µM],GI50 [5] [µM],TGI [5] [µM],GI50 [6] [µM],TGI [6] [µM],GI50 [7] [µM],TGI [7] [µM],GI50 [8] [µM],TGI [8] [µM],GI50 [9] [µM],TGI [9] [µM],TGI [10] [µM],GI50 [10] [µM]
CC1=CC(=O)C(C(C)=Nc2ccccc2Cl)C(=O)O1 (stereo unspecified),> 100,> 100,> 100,> 100,> 100,> 100,> 100,> 100,> 100,> 100,> 100,> 100,> 100,> 100,> 100,> 100,> 100,> 100,,
CC1CC2(CC[C@@H]1O)OCCO2 (stereo partly specified),,> 100,,> 100,,,,,,> 100,,> 100,,> 100,,> 100,,> 100,,
CC(=O)C1=C([O-])C(C)OC1=O.CC(=O)C1=C([O-])C(C)OC1=O.[NH-]C1CCCC[C@H]1[NH-].[Pt+4] (stereo unspecified),63.3,> 100,67.4,> 100,> 100,> 100,,,30.5,> 100,> 100,> 100,85.3,> 100,96.6,> 100,> 100,> 100,,
O=[N+]([O-])c1nccn1CC1OC(n2ccnc2[N+](=O)[O-])C(O)C(O)C1O (stereo unspecified),,> 100,,,,,,> 100,,> 100,,,,> 100,,,,> 100,> 100,
C/C1=C\CC[C@@](C)(O)[C@@H]2CC3[C@@H](OC(=O)C34CC4)[C@@H](O2)[C@H](C)CCC1 (stereo partly specified),28.9,> 100,23.7,58,19.4,73.3,,,12,24.7,17.3,34.4,,,6.09,25.8,14.7,27.8,> 100,19.9
O=C(O)c1c[nH]cc1C(=O)O,,> 100,,> 100,,> 100,,> 100,,> 100,,> 100,,> 100,,> 100,,,> 100,
CC(C)[C@@H](COC(C)(C)C)N=CN1CCc2c([nH]c3ccccc23)C1,,> 100,,> 100,,> 100,,> 100,,> 100,,> 100,,> 100,,> 100,,> 100,,
CCOc1ccc(NC(=O)CC2SC(N)=NC2=O)cc1 (stereo unspecified),,> 100,,,,> 100,,> 100,,> 100,,> 100,,> 100,,> 100,,> 100,,
CC(=O)OC1C2(CC3N4C(=O)C5(CO)SSC4(CC31O)C(=O)N5C)OC(C)C(C)(C)C2=O (stereo unspecified),< 0.01,,< 0.01,< 0.0197,0.896,2.95,0.0142,0.0553,< 0.0485,0.217,1.96,3.94,0.253,0.722,< 0.01,< 0.0121,< 0.018,0.0538,,
CCO[C@@H]1C2C=CC(C2)[C@H]1[N+](=O)[O-] (stereo partly specified),,> 100,,> 100,,> 100,,> 100,,> 100,,> 100,,> 100,,> 100,,> 100,,
CC[CH2][Pb]([CH2]CC)([CH2]CC)[NH]S(=O)(=O)c1ccc(C)cc1,0.0546,0.112,0.125,0.312,0.035,0.117,,,0.137,0.277,0.0898,0.203,0.0616,0.219,0.025,0.0655,0.0727,0.2,0.279,0.0522
Nc1nc(OCc2ccccc2)nc2[nH]ncc12,28.6,77.6,30.9,> 100,17.1,48.4,14.8,32.6,24,88.8,16.9,31.1,36.6,> 100,15,36.2,,,30.5,5.59
N#Cc1ccccc1NC(=O)c1ccccc1,,> 100,,> 100,,> 100,,,,> 100,,> 100,,,,> 100,,,> 100,
CC(C)=CCC/C(C)=C/Cc1c(O)ccc2c1[nH]c1cc(O)c(C)cc12,,> 25,,> 25,,> 25,,> 25,,> 25,,,,> 25,,> 25,,> 25,> 25,
N#CC1C(N)=NNC12Nc1ccccc1N2 (stereo unspecified),,,31.4,> 100,,,,,13.6,38.1,18.8,69.4,65.9,> 100,26.7,> 100,31.9,> 100,36.8,6.4
CC1=NN(C(=O)c2ccc(Cl)cc2)C(=O)/C1=C/c1cccc([N+](=O)[O-])c1,,> 100,,> 100,,> 100,,,,> 100,,> 100,,> 100,,> 100,,> 100,,
O=C1C(=O)N(C2C3CC4CC(C3)CC2C4)C(=O)C(=O)C1c1nc2ccccc2o1 (stereo unspecified),,49.9,,> 100,,> 100,,> 100,,> 100,,> 100,,> 100,,> 100,,> 100,,
O=c1[nH]cnc2c(C3OC(CO)C(O)C3O)scc12 (stereo unspecified),> 100,> 100,60,> 100,> 100,> 100,> 100,> 100,74,> 100,> 100,> 100,56.5,> 100,43.9,> 100,32.3,> 100,,
